Legend:
HBV RNaseH = target: T1, HBV RNaseH (Hepatitis B virus genotype A2 subtype adw2, UniProt P03159); test: Biochemical inhibition of HBV RNaseH (oligonucleotide-directed RNA cleavage assay); conditions: compounds at 60, 20 or 10 μM
T1 construct: One of the inventors recently produced active recombinant HBV RNase H; hexahistidine; made in house; host or cells: E. coli
Experimental: (§1) Biochemical inhibition of HBV RNaseH and human RNaseH1 activity. […] RNaseH activity was measured using an oligonucleotide-directed RNA cleavage assay in which a DNA oligonucleotide is annealed to an internally ^32P-labeled RNA, the RNA:DNA heteroduplex is incubated with the enzyme to permit cleavage, and then the RNA cleavage products are resolved by electrophoresis and detected by autoradiography. The compounds were included in the reaction mixes at 60, 20, or 10 μM and the amount of the RNA cleavage products in the compound-containing reactions was compared to reactions in which an equivalent concentration of DMSO was added as a vehicle control. The data were quantified using ImageJ.

Vero cells [1] = test: MTT mitochondrial toxicity assay in Vero cells; type: cell-based; conditions: 24 h; read-out: Vero cell toxicity MTT CC50
HSV-2 [2] = test: Anti-HSV-2 replication assay in Vero cells, titer by plaque assay; type: cell-based, herpes simplex virus 2; conditions: for Anti-HSV-2 Log10 suppression 5 μM / Anti-HSV-2 Log10 suppression 50 μM: moi 0.1, 24 h, relative to DMSO; for Inhibition of HSV-2 replication (in words): primary screening
Experimental: (§2) Anti-HSV-1 and -HSV-2 Replication Assay. Compounds to be screened were diluted in PBS supplemented to contain 2% newborn calf serum and 1% glutamine, and added in 100 μL, volume to confluent cell monolayers in 24-well cluster plates. Immediately thereafter HSV-1 and HSV-2, diluted in the supplemented PBS medium, were added to the wells in 50 μl volume such that the final concentration of compound was 50 μM and 5 μM and the multiplicity of infection was 0.1. The plates were incubated at 37° C. for 1 hour and then virus-containing inoculum was removed and the wells were washed once in PBS. Compounds, diluted to 50 μM and 5 μM in DMEM supplemented to contain 2% newborn calf serum and 1% each penicillin/streptomycin, were added at 0.5 mL/well. Plates were incubated at 37° C. an additional 23 hr, and then the plates were visually inspected through a phase contrast microscope for cytopathic effect, and for toxic effect. […] The entire contents of each well were collected by scraping. Samples were frozen at −80° C., and then subsequently thawed, sonicated, and infectious virus titer was determined by standard plaque assay on Vero cell monolayers. Because the compounds were dissolved at 10 mM in 100% DMSO, equivalent dilutions of DMSO were added to additional wells as a control for effects of the diluent. Each experiment was repeated once. EC50 values were determined as above except that serial dilutions of the compound to be tested were prepared starting at 50 μM. The inhibitory values were calculated by non-linear curve-fitting in GraphPad Prism.
(§3) Monolayers were microscopically inspected 24 hours post-infection and wells in which more cells were visually healthier than the DMSO-treated controls were collected. Viral titers in the culture lysates were then determined by standard plaque assay on Vero cells. Inhibition of viral replication was categorized as <1 log10 relative to the DMSO-treated control, 1 to 3 log10 suppression, or ≥3 log10 suppression. […] Additionally, four polyoxygenated heterocycle compounds were tested (#128, 138, 139, 140).

HSV-1 [3] = test: Anti-HSV-1 replication assay in Vero cells, titer by plaque assay; type: cell-based, herpes simplex virus 1; conditions: for Anti-HSV-1 Log10 suppression 5 μM / Anti-HSV-1 Log10 suppression 50 μM: moi 0.1, 24 h, relative to DMSO; for Inhibition of HSV-1 replication (in words): primary screening
Experimental: as §2, §3

Vero cells [4] = test: CytoTox-Glo cellular lysis assay in Vero cells; type: cell-based; conditions: 24 h; read-out: Vero cell toxicity CTG CC50
Experimental: Quantitative toxicity measurements were conducted for all compounds that suppressed HSV replication by approximately 2 login or more at 5 μM plus a number of compounds with lesser inhibitory activity for comparison. Toxicity was assessed by measuring release of intracellular proteases into the culture medium due to cellular lysis. […] Consistent with the subjective assessments of toxicity, all compounds selected for quantitative toxicity assessment had CC50 values ≥50 μM by both the MTT and cellular lysis assays (Table 1).

Vero cells [5] = test: Qualitative (visual) cytotoxicity assessment in primary screening; type: cell-based; parameters: key to Vero cell toxicity Qualitative: T: visual evidence of toxicity at 50 μM; conditions: visual, 50 μM
Experimental: Compound Cytotoxicity. Compound cytotoxicity was measured both subjectively and quantitatively. Subjective assessments were done by visually inspecting the infected cells at the end of the 24 hours infection window through a phase-contrast microscope.

human RNaseH1 = target: T2, human RNaseH1 (Homo sapiens, UniProt O60930); test: Biochemical inhibition of human RNaseH1 (oligonucleotide-directed RNA cleavage assay); conditions: compounds at 60, 20 or 10 μM
T2 construct: hexahistidine; made in house; host or cells: E. coli
T2 sequence (O60930 1-286): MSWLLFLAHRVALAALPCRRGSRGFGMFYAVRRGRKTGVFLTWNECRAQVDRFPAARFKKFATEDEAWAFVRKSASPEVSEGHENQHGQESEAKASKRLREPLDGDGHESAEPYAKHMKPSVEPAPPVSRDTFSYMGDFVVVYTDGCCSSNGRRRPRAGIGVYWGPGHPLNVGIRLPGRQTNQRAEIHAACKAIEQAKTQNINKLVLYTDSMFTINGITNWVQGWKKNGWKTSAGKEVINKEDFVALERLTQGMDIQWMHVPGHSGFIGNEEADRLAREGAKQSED
Experimental: as §1

[6] = tested on: primary human foreskin fibroblasts; test: in vitro
Experimental: (§4) Toxicity Assays. Qualitative assessments of cytotoxicity were done visually by inspecting the cells in the primary screening assays. For the quantitative assays, cells were plated in 96-well plates at 1.0×10^4 per well. The next day the compounds were added at 0.78 to 100 μM in a final concentration of 1% (v/v) DMSO, and the cells were incubated for 24 hours under conditions identical to those employed for the viral replication inhibition assays. Mitochondrial toxicity was measured by incubating the cells with 0.25 mg/mL thiazolyl blue tetrazolium bromide (MTT, SigmaAldrich Chemical Co.), the cultures were incubated for 60 min, metabolites were solubilized in acidic isopropanol, and absorbance was read at 570 nm. Cellular lysis was measured by detecting release of intracellular proteases with the CytoTox-Glo assay (Promega) according to the manufacturer's instructions. Percent viability was determined for each compound concentration from the maximal absorbance or luminosity data, and then CC50 values were calculated by non-linear curve fitting using GraphPad Prism.
(§5) Inhibition of viral replication was next assessed in human foreskin fibroblasts (HFF) to determine whether NTS inhibitors could block HSV-1 and HSV-2 replication in a physiologically relevant, primary human cell type. […] Viral yields 24 hours post-infection were measured by plaque assay.

HSV-1 [7] = test: HSV-1 replication inhibition in primary human foreskin fibroblasts; type: cell-based, herpes simplex virus 1; parameters: key to Replication inhibition HSV-1 50 μM (not quantified): NQ: Not quantified due to visible toxicity; conditions: HFF cells
Experimental: as §2, §5

HSV-2 [8] = test: HSV-2 replication inhibition in primary human foreskin fibroblasts; type: cell-based, herpes simplex virus 2; parameters: key to Replication inhibition HSV-2 50 μM (not quantified): NQ: Not quantified due to visible toxicity; conditions: HFF cells
Experimental: as §2, §5

in vitro = conditions: human
Experimental: as §4, §5

[9] = relative to DMSO-treated control
[10] = 50 μM, relative to DMSO-treated control

T1 sequence (P03159 693-845): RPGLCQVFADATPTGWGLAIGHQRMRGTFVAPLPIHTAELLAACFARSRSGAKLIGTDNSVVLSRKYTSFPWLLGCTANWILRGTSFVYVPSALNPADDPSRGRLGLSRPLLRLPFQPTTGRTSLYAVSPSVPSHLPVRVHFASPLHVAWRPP

Compound	Anti-HBV RNaseH (HBV RNaseH)	CC50 (Vero cells [1]) [µM]	Anti-HSV-2 Log10 suppression 5 μM (HSV-2 [2]; 5 μM) [log10]	Anti-HSV-2 Log10 suppression 50 μM (HSV-2 [2]) [log10]	Anti-HSV-1 Log10 suppression 5 μM (HSV-1 [3]; 5 μM) [log10]	Anti-HSV-1 Log10 suppression 50 μM (HSV-1 [3]; 50 μM) [log10]	CC50 (Vero cells [4]) [µM]	Vero cell toxicity Qualitative (Vero cells [5])	Anti-Human RNaseH1 (human RNaseH1)	Anti-HSV-2 Log10 suppression 50 μM (screening symbol) (HSV-2 [2]; visual inspection)	Replication inhibition HSV-1 5 μM (HSV-1 [7]; [9]) [log10]	Replication inhibition HSV-2 5 μM (HSV-2 [8]; [9]) [log10]	other results
O=C1Cc2ccccc2C(=O)N1O [Compound 1]	+++ (inhibition at 10 μM)	> 100	−0.11	3.12	0.28	2.66	> 100	T?					
C[C@H](Cc1ccc(O)c(O)c1)[C@@H](C)Cc1ccc(O)c(O)c1 [Compound 2]	− (no inhibition at 60 μM)	> 100	−0.15	4.38	−0.19	3.21	> 100		− (no inhibition at 60 μM)				
COc1cc2c(cc1Cc1cccc(Cl)c1F)c(=O)c(C(=O)O)cn2[C@H](CO)C(C)C [Compound 10, Elvitegravir, reference compound]	− (no inhibition at 60 μM)							T	− (no inhibition at 60 μM)	−			Anti-HSV-2 Log10 suppression 5 μM (screening symbol) (HSV-2 [2]; 5 μM, visual inspection): −; Anti-HSV-1 Log10 suppression 5 μM (screening symbol) (HSV-1 [3]; 5 μM, visual inspection): −; Anti-HSV-1 Log10 suppression 50 μM (screening symbol) (HSV-1 [3]; 50 μM, visual inspection): −
O=c1cc2oc3cc(O)c(O)cc3c(-c3ccccc3)c-2cc1O [Compound 31]	+++ (inhibition at 10 μM)	> 100	0.22	3.56	0.21	3.01	> 100		+++ (inhibition at 10 μM)				
O=Nc1ccc(O)c(=O)cc1 [Compound 50, 5-nitrosotropolone]	− (no inhibition at 60 μM)							T	− (no inhibition at 60 μM)	+	2.92	2.88	CC50 [6]: 40.4 µM; Toxicity in HFF cells (in words) [6]: some toxicity; Replication inhibition HSV-1 50 μM (not quantified) (HSV-1 [7]; 50 μM): NQ^4; Replication inhibition HSV-2 50 μM (not quantified) (HSV-2 [8]; 50 μM): NQ
O=c1cccccc1O [Compound 53, Tropolone]	− (no inhibition at 60 μM)		0.45	1.45	0.25	1.90			− (no inhibition at 60 μM)		−0.03	0.29	CC50 at 24 h (in vitro): > 100 µM; Inhibition of HSV-2 replication (in words) (HSV-2 [2]): negligible inhibitors; Replication inhibition HSV-1 50 μM (HSV-1 [7]; [10]): 2.13 log10; Replication inhibition HSV-2 50 μM (HSV-2 [8]; [10]): 1.22 log10; Inhibition of HSV-1 replication (in words) (HSV-1 [3]): negligible inhibitors
Cc1ccc(S(=O)(=O)Oc2cccccc2=O)cc1 [Compound 61]	− (no inhibition at 60 μM)		0.23		0.15			T	++ (inhibition at 20 μM)	−	−0.17	−0.05	CC50 [6]: 27.8 µM; Toxicity in HFF cells (in words) [6]: some toxicity; Inhibition of HSV-2 replication (in words) (HSV-2 [2]): negligible inhibitors; Replication inhibition HSV-1 50 μM (not quantified) (HSV-1 [7]; 50 μM): NQ; Replication inhibition HSV-2 50 μM (not quantified) (HSV-2 [8]; 50 μM): NQ; Inhibition of HSV-1 replication (in words) (HSV-1 [3]): negligible inhibitors
